Assay results as given in patent US11885816B2, “Personalized medicine approach for treating cognitive loss” (University of North Texas Health Science Center at Fort …, priority 2013, dated 2024).
Entries after “also recorded” stand apart in the source; their conditions may differ. Like-named read-outs stand apart in the source and are kept apart here.

Tested on: AD patients
Conditions: for disease severity (CDR Sum of Boxes [CDRSum]): treated; for change in MMSE scores over the 12 month period of the trial: treatment group
Method: In order to determine if the proinflammatory endophenotype predicted treatment response, baseline plasma samples were analyses from a previously conducted trial of the Alzheimer's Disease Cooperative Study (ADCS, Aisen et al 2003, JAMA).
Baseline plasma samples were assayed using enhanced chemiluminescence (ECL) for a range of inflammatory markers. The pro-inflammatory profile was generated using CRP and TNFα. Additional markers can be used to improve the already robust results shown herein. The frequency of the low, middle (referent group) and high ends of the pro-inflammatory profile are presented below.
Blood samples from a previously conducted clinical trial among AD patients was used. This trial was conducted by the Alzheimer's Disease Cooperative Study (ADCS, Aisen et al 2003, JAMA).
Baseline plasma samples were assayed using ECL for a range of inflammatory markers. The pro-inflammatory profile was generated using CRP and TNFα.

For COc1ccc2cc([C@H](C)C(=O)O)ccc2c1 [naproxen], the “treatment comparison of non-selective with selective NSAIDs” value (high end of the proinflammatory endophenotype, comparator selective NSAIDs (celecoxib)) was “superior treatment”, the “disease severity (CDR Sum of Boxes [CDRSum])” value (high end of the pro-inflammatory profile, compared to untreated) was “declined less than those who were untreated” and the “disease severity (CDR Sum of Boxes [CDRSum])” value (low end of the pro-inflammatory profile, over 12 months, compared to any other group) was “progressed in disease severity more rapidly”. For the same molecule, the “change in MMSE scores over the 12 month period of the trial” value (high end of the pro-inflammatory profile (group 3), compared to the low end and the referent group, listed as anti-inflammatory drug) was “stable over 12 months; also recorded: stable over 12 mo” and the “change in MMSE scores over the 12 month period of the trial” value (low end of the pro-inflammatory profile (group 1), compared to the referent (middle) group) was “declined significantly faster”.
